Reference: patent publication US12202835B2, “Substituted aromatic ring-linked dioxinoquinazolines and dioxinoquinolines as kinase inhibitors” (BEIJING SCITECH-MQ PHARMACEUTICALS LIMITED, priority 2018, dated 2025)

Key:
Type in all cases: biochemical
TRKA kinase = TRKA kinase (Homo sapiens (Human), UniProt P04629); test: Assay of small molecular compounds for inhibiting the activity of TRKA kinase (LANCE TR-FRET)
Method in brief: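 TRKA (supplied as 2 nM 2× solution) was pre-reacted with compounds for 5 min at room temperature before a 4× ULight-TK peptide/ATP mix (400 nM/40 μM) started the 60-min dark reaction at 1% DMSO. After stop and 60-min detection, TR-FRET was read.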

MER kinase = MER kinase (Homo sapiens (Human), UniProt Q12866); test: Assay of small molecular compounds for inhibiting the activity of MER kinase (LANCE TR-FRET)
MER kinase, sequence (Q12866 21-999): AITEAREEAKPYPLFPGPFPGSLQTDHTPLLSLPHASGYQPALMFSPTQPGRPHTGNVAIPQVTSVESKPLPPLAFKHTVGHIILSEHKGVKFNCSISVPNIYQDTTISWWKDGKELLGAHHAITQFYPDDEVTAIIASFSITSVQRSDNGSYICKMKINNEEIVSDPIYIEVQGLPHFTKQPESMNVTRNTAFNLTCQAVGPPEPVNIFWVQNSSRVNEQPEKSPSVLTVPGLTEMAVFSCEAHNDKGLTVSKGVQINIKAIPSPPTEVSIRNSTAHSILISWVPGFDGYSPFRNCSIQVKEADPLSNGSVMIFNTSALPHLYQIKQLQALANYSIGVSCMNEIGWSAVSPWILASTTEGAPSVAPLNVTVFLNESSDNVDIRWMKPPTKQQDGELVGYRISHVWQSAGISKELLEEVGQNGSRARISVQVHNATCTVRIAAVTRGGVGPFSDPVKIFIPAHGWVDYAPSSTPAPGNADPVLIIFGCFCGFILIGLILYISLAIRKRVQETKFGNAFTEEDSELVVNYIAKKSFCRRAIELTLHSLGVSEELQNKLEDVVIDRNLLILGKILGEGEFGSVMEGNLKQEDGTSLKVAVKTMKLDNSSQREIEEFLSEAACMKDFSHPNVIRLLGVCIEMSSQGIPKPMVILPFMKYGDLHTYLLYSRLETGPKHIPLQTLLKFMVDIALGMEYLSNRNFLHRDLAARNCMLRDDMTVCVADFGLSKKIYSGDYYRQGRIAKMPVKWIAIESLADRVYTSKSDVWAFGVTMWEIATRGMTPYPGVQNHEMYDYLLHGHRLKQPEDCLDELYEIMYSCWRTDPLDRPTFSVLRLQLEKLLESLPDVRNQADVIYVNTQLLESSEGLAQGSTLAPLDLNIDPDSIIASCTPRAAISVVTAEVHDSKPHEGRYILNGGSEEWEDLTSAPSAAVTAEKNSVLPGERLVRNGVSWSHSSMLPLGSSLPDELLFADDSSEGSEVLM
Method in brief: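 LANCE TR-FRET readout of ULight-poly GT phosphorylation by MER kinase; compound final range 0.042-2500 nM, 3-fold steps, 5 min enzyme preincubation. Reaction 60 min at room temperature in the dark with substrate/ATP (4× at 200 nM/20 μM), 1% DMSO, then stopped and developed 60 min; IC50 by curve fit.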

VEGFR-2 kinase = VEGFR-2 kinase (Homo sapiens (Human), UniProt P35968); test: Assay of small molecular compounds for inhibiting the activity of VEGFR-2 kinase (LANCE TR-FRET); conditions: read-out: VEGFR2 IC50
VEGFR-2 kinase, sequence (P35968 20-1356): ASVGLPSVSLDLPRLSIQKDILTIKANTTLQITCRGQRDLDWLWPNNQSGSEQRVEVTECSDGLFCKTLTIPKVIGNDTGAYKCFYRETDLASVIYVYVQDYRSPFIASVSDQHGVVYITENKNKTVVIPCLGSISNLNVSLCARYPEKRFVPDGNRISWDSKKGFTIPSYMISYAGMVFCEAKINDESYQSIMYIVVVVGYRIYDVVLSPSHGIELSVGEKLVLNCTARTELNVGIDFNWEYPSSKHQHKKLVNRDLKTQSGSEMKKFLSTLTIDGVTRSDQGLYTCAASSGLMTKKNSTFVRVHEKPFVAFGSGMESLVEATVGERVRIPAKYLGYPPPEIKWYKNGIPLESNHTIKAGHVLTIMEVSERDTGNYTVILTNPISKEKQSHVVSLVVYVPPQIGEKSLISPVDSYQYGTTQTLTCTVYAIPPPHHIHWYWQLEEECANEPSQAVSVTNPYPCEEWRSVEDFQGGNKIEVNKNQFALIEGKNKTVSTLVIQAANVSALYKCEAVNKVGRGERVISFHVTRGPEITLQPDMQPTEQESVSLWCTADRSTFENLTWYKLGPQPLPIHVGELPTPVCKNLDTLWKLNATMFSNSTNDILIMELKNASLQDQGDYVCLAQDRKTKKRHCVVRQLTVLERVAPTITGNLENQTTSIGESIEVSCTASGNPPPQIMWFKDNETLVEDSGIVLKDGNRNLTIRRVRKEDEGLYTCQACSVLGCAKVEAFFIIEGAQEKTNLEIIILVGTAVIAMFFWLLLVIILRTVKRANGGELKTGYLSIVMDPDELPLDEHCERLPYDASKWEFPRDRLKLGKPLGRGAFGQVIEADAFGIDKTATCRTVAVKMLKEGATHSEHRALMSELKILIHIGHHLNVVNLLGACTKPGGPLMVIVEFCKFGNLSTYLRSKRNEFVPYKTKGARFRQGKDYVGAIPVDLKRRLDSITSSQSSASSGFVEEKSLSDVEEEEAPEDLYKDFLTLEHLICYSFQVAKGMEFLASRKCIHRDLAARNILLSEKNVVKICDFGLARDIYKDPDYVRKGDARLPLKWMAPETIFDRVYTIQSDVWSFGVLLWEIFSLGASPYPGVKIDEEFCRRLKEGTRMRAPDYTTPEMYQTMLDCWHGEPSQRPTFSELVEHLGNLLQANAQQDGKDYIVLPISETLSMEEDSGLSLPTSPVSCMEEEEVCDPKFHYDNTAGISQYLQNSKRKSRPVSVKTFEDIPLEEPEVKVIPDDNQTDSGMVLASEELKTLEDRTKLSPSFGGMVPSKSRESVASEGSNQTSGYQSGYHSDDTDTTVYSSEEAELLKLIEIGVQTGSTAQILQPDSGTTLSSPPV
Method in brief: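 LANCE TR-FRET with human VEGFR-2 (2× stock 0.5 nM) preincubated 30 min with compound (final 2500 to 0.042 nM, 11-point 3-fold), then ULight-JAK-1 (Tyr1023) peptide/ATP added (4× stocks 200 nM/40 μM). Reaction 60 min room temperature, 4% DMSO; IC50 from inhibition-rate curve.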

TRKA kinase, sequence (P04629 33-796): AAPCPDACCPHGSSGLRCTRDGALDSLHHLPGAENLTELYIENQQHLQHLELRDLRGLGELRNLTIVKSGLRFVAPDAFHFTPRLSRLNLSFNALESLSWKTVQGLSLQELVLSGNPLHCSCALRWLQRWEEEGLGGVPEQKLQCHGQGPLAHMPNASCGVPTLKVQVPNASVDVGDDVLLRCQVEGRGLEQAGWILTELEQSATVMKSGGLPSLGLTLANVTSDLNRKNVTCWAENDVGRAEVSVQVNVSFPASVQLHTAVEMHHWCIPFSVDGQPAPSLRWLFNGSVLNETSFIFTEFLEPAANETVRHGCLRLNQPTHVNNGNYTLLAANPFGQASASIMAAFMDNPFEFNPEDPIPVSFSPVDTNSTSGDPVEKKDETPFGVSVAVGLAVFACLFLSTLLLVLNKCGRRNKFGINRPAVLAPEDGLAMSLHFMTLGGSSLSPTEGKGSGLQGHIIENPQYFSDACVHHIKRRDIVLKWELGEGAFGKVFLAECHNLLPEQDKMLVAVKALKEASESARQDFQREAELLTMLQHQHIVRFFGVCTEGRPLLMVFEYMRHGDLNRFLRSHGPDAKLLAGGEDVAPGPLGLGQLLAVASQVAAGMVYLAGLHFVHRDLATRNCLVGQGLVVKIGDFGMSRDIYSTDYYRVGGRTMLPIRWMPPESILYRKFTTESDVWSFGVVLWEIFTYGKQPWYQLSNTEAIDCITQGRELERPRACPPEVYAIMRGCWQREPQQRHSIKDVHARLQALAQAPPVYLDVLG

O=C(Nc1ccc(Oc2ncnc3cc(OCCCN4CCOCC4)c4c(c23)OCCO4)c(F)c1)c1cccn(-c2ccc(F)cc2)c1=O [Example 4, N-(3-fluoro-4-((5-(3-morpholinopropoxy)-2,3-dihydro-[1,4]dioxino[2,3-f]quinazolin-10-yl)oxy)phenyl)-1-(4-fluorophenyl)-2-oxo-1,2-dihydropyridine-3-carboxamide]
IC50 (TRKA kinase): < 50 nM
IC50 (MER kinase): ≤ 50 nM
IC50 (VEGFR-2 kinase): ≤ 50 nM

COc1ccn(-c2ccc(F)cc2)c(=O)c1C(=O)Nc1ccc(Oc2ncnc3cc(OCCCN4CCOCC4)c4c(c23)OCCO4)c(F)c1 [Example 5, N-(3-fluoro-4-((5-(3-morpholinopropoxy)-2,3-dihydro-[1,4]dioxino[2,3-f]quinazolin-10-yl)oxy)phenyl)-1-(4-fluorophenyl)-4-methoxy-2-oxo-1,2-dihydropyridine-3-carboxamide]
IC50 (TRKA kinase): < 50 nM
IC50 (MER kinase): ≤ 50 nM
IC50 (VEGFR-2 kinase): 50 to 500 nM

CCOc1ccn(-c2ccc(F)cc2)c(=O)c1C(=O)Nc1ccc(Oc2ncnc3cc(OCCCN4CCOCC4)c4c(c23)OCCO4)c(F)c1 [Example 6, N-(3-fluoro-4-((5-(3-morpholinopropoxy)-2,3-dihydro-[1,4]dioxino[2,3-f]quinazolin-10-yl)oxy)phenyl)-1-(4-fluorophenyl)-4-ethoxy-2-oxo-1,2-dihydropyridine-3-carboxamide]
IC50 (TRKA kinase): < 50 nM
IC50 (MER kinase): ≤ 50 nM
IC50 (VEGFR-2 kinase): 50 to 500 nM

COc1cc2nccc(Oc3ccc(NC(=O)c4cn(C)c(=O)n(-c5ccc(F)cc5)c4=O)cc3F)c2c2c1OCCO2 [Example 13, N-(3-fluoro-4-((5-methoxy-2,3-dihydro-[1,4]dioxino[2,3-f]quinolin-10-yl)oxy)phenyl)-3-(4-fluorophenyl)-1-methyl-2,4-dioxo-1,2,3,4-tetrahydropyrimidine-5-carboxamide]
IC50 (TRKA kinase): < 50 nM
IC50 (MER kinase): ≤ 50 nM
IC50 (VEGFR-2 kinase): 500 to 5000 nM

Cn1cc(C(=O)Nc2ccc(Oc3ccnc4cc(OCCCN5CCOCC5)c5c(c34)OCCO5)c(F)c2)c(=O)n(-c2ccc(F)cc2)c1=O [Example 15, N-(3-fluoro-4-((5-(3-morpholinopropoxy)-2,3-dihydro-[1,4]dioxino[2,3-f]quinolin-10-yl)oxy)phenyl)-3-(4-fluorophenyl)-1-methyl-2,4-dioxo-1,2,3,4-tetrahydropyrimidine-5-carboxamide]
IC50 (TRKA kinase): < 50 nM
IC50 (MER kinase): ≤ 50 nM
IC50 (VEGFR-2 kinase): 50 to 500 nM

CC(C)n1cc(C(=O)Nc2ccc(Oc3ccnc4cc(OCCCN5CCOCC5)c5c(c34)OCCO5)c(F)c2)c(=O)n(-c2ccc(F)cc2)c1=O [Example 16, N-(3-fluoro-4-((5-(3-morpholinopropoxy)-2,3-dihydro-[1,4]dioxino[2,3-f]quinolin-10-yl)oxy)phenyl)-3-(4-fluorophenyl)-1-isopropyl-2,4-dioxo-1,2,3,4-tetrahydropyrimidine-5-carboxamide]
IC50 (TRKA kinase): < 50 nM
IC50 (MER kinase): ≤ 50 nM

COc1cc2nccc(Oc3ccc(NC(=O)c4cccn(-c5ccc(F)cc5)c4=O)cc3F)c2c2c1OCCO2 [Example 17, N-(3-fluoro-4-((5-methoxy-2,3-dihydro-[1,4]dioxino[2,3-f]quinolin-10-yl)oxy)phenyl)-1-(4-fluorophenyl)-2-oxo-1,2-dihydropyridine-3-carboxamide]
IC50 (TRKA kinase): < 50 nM
IC50 (MER kinase): ≤ 50 nM
IC50 (VEGFR-2 kinase): ≤ 50 nM

COc1cc2nccc(Oc3ccc(NC(=O)c4c(OC)ccn(-c5ccc(F)cc5)c4=O)cc3F)c2c2c1OCCO2 [Example 18, N-(3-fluoro-4-((5-methoxy-2,3-dihydro-[1,4]dioxino[2,3-f]quinolin-10-yl)oxy)phenyl)-1-(4-fluorophenyl)-4-methoxy-2-oxo-1,2-dihydropyridine-3-carboxamide]
IC50 (TRKA kinase): < 50 nM
IC50 (MER kinase): ≤ 50 nM
IC50 (VEGFR-2 kinase): ≤ 50 nM

COc1cc2nccc(Oc3ccc(NC(=O)c4cn(C)c(=O)n(-c5ccc(F)cc5)c4=O)c(Cl)c3)c2c2c1OCCO2 [Example 125, N-(2-chloro-4-((5-methoxy-2,3-dihydro-[1,4]dioxino[2,3-f]quinolin-10-yl)oxy)phenyl)-3-(4-fluorophenyl)-1-methyl-2,4-dioxo-1,2,3,4-tetrahydropyrimidine-5-carboxamide]
IC50 (TRKA kinase): < 50 nM
IC50 (MER kinase): 50 to 500 nM

Cn1cc(C(=O)Nc2ccc(Oc3ccnc4cc(OCC(C)(C)O)c5c(c34)OCCO5)cc2Cl)c(=O)n(-c2ccc(F)cc2)c1=O [Example 141, N-(2-chloro-4-((5-(2-hydroxy-2-methylpropoxy)-2,3-dihydro-[1,4]dioxino[2,3-f]quinolin-10-yl)oxy)phenyl)-3-(4-fluorophenyl)-1-methyl-2,4-dioxo-1,2,3,4-tetrahydropyrimidine-5-carboxamide]
IC50 (TRKA kinase): < 50 nM
IC50 (MER kinase): 50 to 500 nM

COc1cc2nccc(Oc3ccc(NC(=O)c4cn(C)c(=O)n(-c5ccc(F)cc5)c4=O)cc3)c2c2c1OCCO2 [Example 145, N-(4-((5-methoxy-2,3-dihydro-[1,4]dioxino[2,3-f]quinolin-10-yl)oxy)phenyl)-3-(4-fluorophenyl)-1-methyl-2,4-dioxo-1,2,3,4-tetrahydropyrimidine-5-carboxamide]
IC50 (TRKA kinase): < 50 nM
IC50 (VEGFR-2 kinase): 500 to 5000 nM

CCn1cc(C(=O)Nc2ccc(Oc3ccnc4cc(OC)c5c(c34)OCCO5)cc2)c(=O)n(-c2ccc(F)cc2)c1=O [Example 146, N-(4-((5-methoxy-2,3-dihydro-[1,4]dioxino[2,3-f]quinolin-10-yl)oxy)phenyl)-3-(4-fluorophenyl)-1-ethyl-2,4-dioxo-1,2,3,4-tetrahydropyrimidine-5-carboxamide]
IC50 (TRKA kinase): < 50 nM
IC50 (VEGFR-2 kinase): > 5000 nM

COCCOc1cc2nccc(Oc3ccc(NC(=O)c4cn(C)c(=O)n(-c5ccc(F)cc5)c4=O)cc3)c2c2c1OCCO2 [Example 147, N-(4-((5-(2-methoxyethoxy)-2,3-dihydro-[1,4]dioxino[2,3-f]quinolin-10-yl)oxy)phenyl)-3-(4-fluorophenyl)-1-methyl-2,4-dioxo-1,2,3,4-tetrahydropyrimidine-5-carboxamide]
IC50 (TRKA kinase): < 50 nM
IC50 (VEGFR-2 kinase): 50 to 500 nM

CCn1cc(C(=O)Nc2ccc(Oc3ccnc4cc(OCCOC)c5c(c34)OCCO5)cc2)c(=O)n(-c2ccc(F)cc2)c1=O [Example 148, N-(4-((5-(2-methoxyethoxy)-2,3-dihydro-[1,4]dioxino[2,3-f]quinolin-10-yl)oxy)phenyl)-3-(4-fluorophenyl)-1-ethyl-2,4-dioxo-1,2,3,4-tetrahydropyrimidine-5-carboxamide]
IC50 (TRKA kinase): < 50 nM
IC50 (VEGFR-2 kinase): 500 to 5000 nM

Cn1cc(C(=O)Nc2ccc(Oc3ccnc4cc(OCC(C)(C)O)c5c(c34)OCCO5)cc2)c(=O)n(-c2ccc(F)cc2)c1=O [Example 149, N-(4-((5-(2-hydroxy-2-methylpropoxy)-2,3-dihydro-[1,4]dioxino[2,3-f]quinolin-10-yl)oxy)phenyl)-3-(4-fluorophenyl)-1-methyl-2,4-dioxo-1,2,3,4-tetrahydropyrimidine-5-carboxamide]
IC50 (TRKA kinase): < 50 nM
IC50 (VEGFR-2 kinase): 500 to 5000 nM

CCn1cc(C(=O)Nc2ccc(Oc3ccnc4cc(OCC(C)(C)O)c5c(c34)OCCO5)cc2)c(=O)n(-c2ccc(F)cc2)c1=O [Example 150, N-(4-((5-(2-hydroxy-2-methylpropoxy)-2,3-dihydro-[1,4]dioxino[2,3-f]quinolin-10-yl)oxy)phenyl)-3-(4-fluorophenyl)-1-ethyl-2,4-dioxo-1,2,3,4-tetrahydropyrimidine-5-carboxamide]
IC50 (TRKA kinase): < 50 nM
IC50 (VEGFR-2 kinase): 500 to 5000 nM

COc1cc2nccc(Oc3ccc(NC(=O)c4cn(C)c(=O)n(-c5ccc(F)cc5)c4=O)c(F)c3)c2c2c1OCCO2 [Example 153, N-(2-fluoro-4-((5-methoxy-2,3-dihydro-[1,4]dioxino[2,3-f]quinolin-10-yl)oxy)phenyl)-3-(4-fluorophenyl)-1-methyl-2,4-dioxo-1,2,3,4-tetrahydropyrimidine-5-carboxamide]
IC50 (TRKA kinase): < 50 nM
IC50 (VEGFR-2 kinase): 500 to 5000 nM

COCCOc1cc2nccc(Oc3ccc(NC(=O)c4cn(C)c(=O)n(-c5ccc(F)cc5)c4=O)c(F)c3)c2c2c1OCCO2 [Example 155, N-(2-fluoro-4-((5-(2-methoxyethoxy)-2,3-dihydro-[1,4]dioxino[2,3-f]quinolin-10-yl)oxy)phenyl)-3-(4-fluorophenyl)-1-methyl-2,4-dioxo-1,2,3,4-tetrahydropyrimidine-5-carboxamide]
IC50 (TRKA kinase): < 50 nM
IC50 (VEGFR-2 kinase): 500 to 5000 nM

CCn1cc(C(=O)Nc2ccc(Oc3ccnc4cc(OCCOC)c5c(c34)OCCO5)cc2F)c(=O)n(-c2ccc(F)cc2)c1=O [Example 156, N-(2-fluoro-4-((5-(2-methoxyethoxy)-2,3-dihydro-[1,4]dioxino[2,3-f]quinolin-10-yl)oxy)phenyl)-3-(4-fluorophenyl)-1-ethyl-2,4-dioxo-1,2,3,4-tetrahydropyrimidine-5-carboxamide]
IC50 (TRKA kinase): < 50 nM
IC50 (VEGFR-2 kinase): 500 to 5000 nM

CCn1cc(C(=O)Nc2cc(F)c(Oc3ccnc4cc(OCCOC)c5c(c34)OCCO5)cc2C)c(=O)n(-c2ccc(F)cc2)c1=O [Example 180, N-(5-fluoro-4-((5-(2-methoxyethoxy)-2,3-dihydro-[1,4]dioxino[2,3-f]quinolin-10-yl)oxy)-2-methylphenyl)-3-(4-fluorophenyl)-1-ethyl-2,4-dioxo-1,2,3,4-tetrahydropyrimidine-5-carboxamide]
IC50 (TRKA kinase): < 50 nM
IC50 (VEGFR-2 kinase): 500 to 5000 nM
